Molecular target: T1, PD-1/PD-L1 (Homo sapiens, UniProt Q9NZQ7)
T1 construct: made in house; host or cells: HEK293T
Experiment: PD-1/PD-L1 Homogenous Time-Resolved Fluorescence (HTRF) binding assay
Conditions: PD-L1-His 10 nM, PD-1-Ig 20 nM; numeric IC50; read-out: Range or IC50
How it was run: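 Binding measured in dPBS with 0.1% BSA and 0.05% Tween-20, detected by HTRF with europium cryptate anti-Ig (1 nM final) and APC anti-His (20 nM final) added over the binding reaction. Counter-assays used human PD-1-Ig/PD-L2-His (20 and 5 nM) and CD80-His/PD-L1-Ig (100 and 10 nM).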

T1 sequence (Q9NZQ7 with tags, fused parts or gaps): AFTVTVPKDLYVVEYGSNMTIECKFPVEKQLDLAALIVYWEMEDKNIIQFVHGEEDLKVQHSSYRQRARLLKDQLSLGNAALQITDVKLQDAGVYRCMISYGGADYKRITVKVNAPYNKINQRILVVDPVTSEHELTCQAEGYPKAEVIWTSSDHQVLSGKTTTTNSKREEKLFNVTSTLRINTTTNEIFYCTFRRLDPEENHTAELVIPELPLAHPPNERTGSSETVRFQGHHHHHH

In the case of `Cc1c(COc2cc(OCc3cncc(C#N)c3)c(CN3CCCC[C@H]3C(=O)O)cc2Cl)cccc1-c1cccc(OCCCN(C)C)c1C` [Example 2253, (2S)-1-(5-chloro-2-((5-cyanopyridin-3-yl)methoxy)-4-((3′-(3-(dimethylamino)propoxy)-2,2′-dimethylbiphenyl-3-yl)methoxy)benzyl)piperidine-2-carboxylic Acid], the IC50 is reported as 5.3 nM.

Same assay, conditions: PD-L1-His 10 nM, PD-1-Ig 20 nM; value given as range class; read-out: Range or IC50

`Cc1c(COc2cc(OCc3cncc(C#N)c3)c(CN3CCCCC3(C)C(=O)O)cc2Cl)cccc1-c1cccc(OCCCN2CC[C@@H](O)C2)c1C` (stereo partly drawn) [Example 3068, 1-(5-chloro-2-((5-cyanopyridin-3-yl)methoxy)-4-((3′-(3-((R)-3-hydroxypyrrolidin-1-yl)propoxy)-2,2′-dimethyl-[1,1′-biphenyl]-3-yl)methoxy)benzyl)-2-methylpiperidine-2-carboxylic Acid] and `Cc1c(COc2cc(OCc3cncc(C#N)c3)c(CN3CCNC(=O)C3)cc2Cl)cccc1-c1cccc(OCCCN2CC[C@@H](O)C2)c1C` [Example 2331, (R)-5-((4-chloro-5-((3′-(3-(3-hydroxypyrrolidin-1-yl)propoxy)-2,2′-dimethyl-[1,1′-biphenyl]-3-yl)methoxy)-2-((3-oxopiperazin-1-yl)methyl)phenoxy)methyl)nicotinonitrile] fall in the same range of IC50: 0.21 to 10 nM for the first, 0.21 to 10 nM for the second.

`Cc1c(COc2cc(OCc3cncc(C#N)c3)c(CN[C@@](C)(CO)C(=O)O)cc2Cl)cccc1-c1cccc(OCCCN2CCN(CCO)CC2)c1C` [Example 2263, (2S)-2-(5-chloro-2-((5-cyanopyridin-3-yl)methoxy)-4-((3′-(3-(4-(2-hydroxyethyl)piperazin-1-yl)propoxy)-2,2′-dimethylbiphenyl-3-yl)methoxy)benzylamino)-3-hydroxy-2-methylpropanoic Acid] and `Cc1c(COc2cc(OCc3cncc(C#N)c3)c(CNC(CO)(CO)CO)cc2Cl)cccc1-c1cccc(OCCCN2CC[C@@H](O)C2)c1C` [Example 2285, (R)-5-((4-chloro-2-(((1,3-dihydroxy-2-(hydroxymethyl)propan-2-yl)amino)methyl)-5-((3′-(3-(3-hydroxypyrrolidin-1-yl)propoxy)-2,2′-dimethyl-[1,1′-biphenyl]-3-yl)methoxy)phenoxy)methyl)nicotinonitrile] fall in the same range of IC50: 0.21 to 10 nM for the first, 0.21 to 10 nM for the second.

First: Cc1c(COc2cc(OCc3cncc(C#N)c3)c(CN3CCCC[C@H]3C(=O)O)cc2Cl)cccc1-c1cccc(OCC(CO)(CO)CO)c1Cl [Example 2084, (S)-1-(5-chloro-4-((2′-chloro-3′-(3-hydroxy-2,2-bis(hydroxymethyl)propoxy)-2-methyl-[1,1′-biphenyl]-3-yl)methoxy)-2-((5-cyanopyridin-3-yl)methoxy)benzyl)piperidine-2-carboxylic Acid]
Second: Cc1c(OCCCN2CC[C@@H](O)C2)cccc1-c1cccc(COc2cc(OCc3cncc(C#N)c3)c(CN3CCCC[C@H]3C(=O)O)cc2Cl)c1Cl [Example 2302, (S)-1-(5-chloro-4-((2-chloro-3′-(3-((R)-3-hydroxypyrrolidin-1-yl)propoxy)-2′-methyl-[1,1′-biphenyl]-3-yl)methoxy)-2-((5-cyanopyridin-3-yl)methoxy)benzyl)piperidine-2-carboxylic Acid]
The IC50 of the first is higher: 100 to 2000 nM for the first, 0.21 to 10 nM for the second. The second is the more potent here.

First: Cc1c(COc2cc(OCc3cncc(C#N)c3)c(CNC(CO)CO)cc2Cl)cccc1-c1cccc(C(=O)N(C)C)c1C [Example 4034, 3′-((2-chloro-5-((5-cyanopyridin-3-yl)methoxy)-4-(((1,3-dihydroxypropan-2-yl)amino)methyl)phenoxy)methyl)-N,N,2,2′-tetramethyl-[1,1′-biphenyl]-3-carboxamide]
Second: Cc1ccccc1-c1cccc(COc2cc(OCc3cncc(C#N)c3)c(CN[C@@H](CO)C(=O)O)cc2Cl)c1C [Example 3021, (S)-2-((5-chloro-2-((5-cyanopyridin-3-yl)methoxy)-4-((2,2′-dimethyl-[1,1′-biphenyl]-3-yl)methoxy)benzyl)amino)-3-hydroxypropanoic Acid]
The IC50 of the first is higher: 10 to 100 nM for the first, 0.21 to 10 nM for the second.

`COC(=O)C1CN(CCCOc2cccc(-c3cccc(COc4cc(OCc5cncc(S(C)(=O)=O)c5)c(CN[C@](C)(CO)C(=O)O)cc4Cl)c3C)c2C)CC1O` (stereo partly drawn) [Example 1073, (2R)-2-((5-chloro-4-((3′-(3-(3-hydroxy-4-(methoxycarbonyl)pyrrolidin-1-yl)propoxy)-2,2′-dimethyl-[1,1′-biphenyl]-3-yl)methoxy)-2-((5-(methylsulfonyl)pyridin-3-yl)methoxy)benzyl)amino)-3-hydroxy-2-methylpropanoic Acid] and `Cc1ccc(OCCCN2CC[C@@H](O)C2)c(C)c1-c1cccc(COc2cc(OCc3cncc(C#N)c3)c(CN[C@@](C)(CO)C(=O)O)cc2Cl)c1C` [Example 3028, (2S)-2-((5-chloro-2-((5-cyanopyridin-3-yl)methoxy)-4-((3′-(3-((R)-3-hydroxypyrrolidin-1-yl)propoxy)-2,2′,6′-trimethyl-[1,1′-biphenyl]-3-yl)methoxy)benzyl)amino)-3-hydroxy-2-methylpropanoic Acid] fall in the same range of IC50: 0.21 to 10 nM for the first, 0.21 to 10 nM for the second.

`Cc1c(COc2cc(OCc3cncc(C#N)c3)c(CN(CCO)CCO)c(C)c2Cl)cccc1-c1cccc(OCCCN2CC[C@@H](O)C2)c1C` [Example 4105, (R)-5-((2-((bis(2-hydroxyethyl)amino)methyl)-4-chloro-5-((3′-(3-(3-hydroxypyrrolidin-1-yl)propoxy)-2,2′-dimethyl-[1,1′-biphenyl]-3-yl)methoxy)-3-methylphenoxy)methyl)nicotinonitrile] and `Cc1c(COc2cc(OCc3cncc(C#N)c3)c(C(=O)NCCO)cc2Cl)cccc1-c1cccc(OCCCN2CC[C@@H](O)C2)c1C` [Example 2379, (R)-5-chloro-2-((5-cyanopyridin-3-yl)methoxy)-N-(2-hydroxyethyl)-4-((3′-(3-(3-hydroxypyrrolidin-1-yl)propoxy)-2,2′-dimethyl-[1,1′-biphenyl]-3-yl)methoxy)benzamide] fall in the same range of IC50: 0.21 to 10 nM for the first, 0.21 to 10 nM for the second.

`Cc1c(COc2cc(OCc3cncc(C#N)c3)c(CNCC(=O)O)cc2Cl)cccc1-c1cccc(OCCCN2CC[C@@H](O)C2)c1C` [Example 4147, (R)-(5-chloro-2-((5-cyanopyridin-3-yl)methoxy)-4-((3′-(3-(3-hydroxypyrrolidin-1-yl)propoxy)-2,2′-dimethyl-[1,1′-biphenyl]-3-yl)methoxy)benzyl)glycine] and `Cc1c(COCCN2CC[C@@H](O)C2)cccc1-c1cccc(COc2cc(OCc3cncc(C#N)c3)c(CN[C@@](C)(CO)C(=O)O)cc2Cl)c1C` [Example 4123, (S)-2-((5-chloro-2-((5-cyanopyridin-3-yl)methoxy)-4-((3′-((2-((R)-3-hydroxypyrrolidin-1-yl)ethoxy)methyl)-2,2′-dimethyl-[1,1′-biphenyl]-3-yl)methoxy)benzyl)amino)-3-hydroxy-2-methylpropanoic Acid] fall in the same range of IC50: 0.21 to 10 nM for the first, 0.21 to 10 nM for the second.

`Cc1c(COCCN2CC[C@@H](O)C2)cccc1-c1cccc(COc2cc(OCc3cncc(C#N)c3)c(CN(C)C(CO)CO)cc2Cl)c1C` [Example 4127, (R)-5-((4-chloro-2-(((1,3-dihydroxypropan-2-yl)(methyl)amino)methyl)-5-((3′-((2-(3-hydroxypyrrolidin-1-yl)ethoxy)methyl)-2,2′-dimethyl-[1,1′-biphenyl]-3-yl)methoxy)phenoxy)methyl)nicotinonitrile] and `Cc1c(CCCCN2CC[C@@H](O)C2)cccc1-c1cccc(COc2cc(OCc3cncc(C#N)c3)c(CN[C@@H](CNC(=O)OC(C)(C)C)C(=O)O)cc2Cl)c1C` [Example 4067, (S)-3-((tert-butoxycarbonyl)amino)-2-((5-chloro-2-((5-cyanopyridin-3-yl)methoxy)-4-((3′-(4-((R)-3-hydroxypyrrolidin-1-yl)butyl)-2,2′-dimethyl-[1,1′-biphenyl]-3-yl)methoxy)benzyl)amino)propanoic Acid] fall in the same range of IC50: 0.21 to 10 nM for the first, 0.21 to 10 nM for the second.

`Cc1c(COc2cc(OCc3cncc(C#N)c3)c(CNC(CO)CO)cc2Cl)cccc1-c1cccc(OCCCN(C)C[C@H](O)CO)c1Cl` [Example 2050, (S)-5-((4-chloro-5-((2′-chloro-3′-(3-((2,3-dihydroxypropyl)(methyl)amino)propoxy)-2-methyl-[1,1′-biphenyl]-3-yl)methoxy)-2-(((1,3-dihydroxypropan-2-yl)amino)methyl)phenoxy)methyl)nicotinonitrile] and `Cc1c(COc2cc(OCc3cncc(C#N)c3)c(CNC(CO)(CO)CO)cc2Cl)cccc1-c1cccc(OCCCNC[C@H](O)CO)c1C` [Example 2282, (S)-5-((4-chloro-2-(((1,3-dihydroxy-2-(hydroxymethyl)propan-2-yl)amino)methyl)-5-((3′-(3-((2,3-dihydroxypropyl)amino)propoxy)-2,2′-dimethyl-[1,1′-biphenyl]-3-yl)methoxy)phenoxy)methyl)nicotinonitrile] fall in the same range of IC50: 0.21 to 10 nM for the first, 0.21 to 10 nM for the second.

`Cc1c(COc2cc(OCc3ccc(F)c(F)c3)c(CNC(CO)(CO)CO)cc2Cl)cccc1-c1cccc(OCCCN2CC[C@@H](O)C2)c1C` [Example 4511, (R)-2-((5-chloro-2-((3,4-difluorobenzyl)oxy)-4-((3′-(3-(3-hydroxypyrrolidin-1-yl)propoxy)-2,2′-dimethyl-[1,1′-biphenyl]-3-yl)methoxy)benzyl)amino)-2-(hydroxymethyl)propane-1,3-diol] and `Cc1c(COc2cc(OCc3cncc(C#N)c3)c(CO)cc2Cl)cccc1-c1cccc(OCCCN2CCCC(CO)C2)c1Cl` (stereo not drawn) [Example 2044, 5-((4-chloro-5-((2′-chloro-3′-(3-(3-(hydroxymethyl)piperidin-1-yl)propoxy)-2-methyl-[1,1′-biphenyl]-3-yl)methoxy)-2-(hydroxymethyl)phenoxy)methyl)nicotinonitrile] fall in the same range of IC50: 0.21 to 10 nM for the first, 0.21 to 10 nM for the second.

From patent publication US10745382B2 (BRISTOL-MYERS SQUIBB COMPANY, priority 2015, dated 2020)
